These results are taken from patent US9289425B2, “Intranasal naloxone compositions and methods of making and using same” (priority 2013, dated 2016).

Structures can show the parent of a compound that is named as a salt. Where two headings read alike, the source gives them in different places.

A short description of data set [1]: Physicochemical properties of naloxone stated in the description. Conditions: pH of about 5.5 to 6.5. An excerpt: Specifically, naloxone is known to have a pKa of about 8. For nasal formulations, wherein transmucosal delivery is desired, it is generally considered advantageous, if not necessary, to ensure that an active agent is primarily in an un-ionized state, as unionized species pass through membranes more easily than ionized species. […] The nasal mucosal is at a pH of about 5.5 to 6.5, a pH at which Applicant has found naloxone is unstable.
Naloxone prevents or reverses the effects of opioids including respiratory depression, sedation and hypotension. Also, it can reverse the psychotomimetic and dysphoric effects of agonist-antagonists such as pentazocine. […] In the presence of physical dependence on opioids, naloxone will produce withdrawal symptoms. However, in the presence of opioid dependence, withdrawal symptoms will appear within minutes of naloxone administration and will subside in about 2 hours. The severity and duration of the withdrawal syndrome are related to the dose and route of administration of naloxone and to the degree and type of dependence.

The conditions of data set [2]: cited from earlier work.

Take `C=CCN1CC[C@]23c4c5ccc(O)c4O[C@H]2C(=O)CC[C@@]3(O)[C@H]1C5` [naloxone, 17-allyl-4,5α-epoxy, 3-14-dihydroxymorphinan-6-one hydrochloride]: in data set [1], the “stability versus pH” value is reported as “unstable”. The pKa entry in data set [2] is recorded as “about 8”. Moreover, the solubility entry in data set [2] (in alcohol) is given as “slightly soluble”; in data set [2] (in ether and in chloroform), “practically insoluble”; in data set [2] (in water, in dilute acids, and in strong alkali), “soluble”.
